In patent US20200392158A1, “INHIBITORS OF LEUCINE RICH REPEAT KINASE 2” (GLAXOSMITHKLINE INTELLECTUAL PROPERTY DEVELOPMENT LIMITED, priority 2017, published 2020):

Target: T1, full length G2019 human LRRK2 (Homo sapiens, UniProt Q5S007, R50H)
T1 construct: made in house; host or cells: HEK293 6E cells transduced with BacMam virus (virus generated in Sf9 cells)
Assay: Full length G2019 human LRRK2 inhibition mass spectrometry assay
Format: biochemical
Conditions: LRRKtide to phospho-LRRKtide conversion, RapidFire MS, 2 mM ATP
Method: a. Full Length G2019 Human LRRK2 Inhibition Mass Spectrometry Assay
This assay for Leucine Rich Repeat Kinase 2 (LRRK2) inhibition is based on the direct measurement of the peptide ‘LRRKtide’ (LRRKtide: RLGRDKYKT*LRQIRQ and “*” refers to the site of phosphorylation.) and phosphorylated ‘LRRKtide’ using a high throughput Rapid Fire mass spectrometry assay. Inhibitors are compounds that reduce the conversion of LRRKtide to phospho-LRRKtide.
• 1) Compounds were dissolved in 100% DMSO at a concentration of 10 mM, and 11-point dose response curves generated using a 1 in 4 serial dilution in DMSO. 100 nL of this dilution series was then added to a 384 well, v bottom polypropylene plate (Greiner 781280), excluding columns 6 and 18. 100 nL of DMSO were added to column 6 to serve as the high control, while column 18 served as the low control containing assay buffer in place of the LRRK2 protein. Assay dilution gave a top final assay concentration of test compound of […] • 2) 5 μL of ‘enzyme solution’ containing 2× final assay concentration of purified recombinant Full length Flag-LRRK2 in assay buffer (50 mM Hepes, pH 7.2, 10 mM MgCl2, 150 mM NaCl, 5% glycerol, 0.0025% Triton X-100 and 1 mM DTT) were added to all wells using a Multidrop Combi dispenser (ThermoFisher Scientifiec), giving a final assay concentration of 25 nM LRRK2 enzyme (final concentration may vary depending on specific activity of different enzyme batches). • 3) 5 μL of substrate solution containing 50 μM LRRKtide peptide substrate and […] was added to all wells of the plate using a Multidrop Combi dispenser giving a final assay concentration of 25 μM LRRKtide peptide and 2 mM ATP. Test plates were then incubated for 1 hour at room temperature. (Incubation may vary depending on rate and linearity of reaction with different enzyme batches). • 4) 50 μl of 1% formic acid in laboratory grade water was added to all wells to quench the reaction, and plates were heat-sealed prior to centrifugation at 1348×g for 10 minutes. Test plates were then analysed on an Agilent RapidFire High Throughput solid phase extraction system coupled to AB Sciex API 4000 triple quadropole mass spectrometer with the following setting:
• Sip Height=2 mm, Aspirate=500 ms, Load time=3000 ms, Elution time=3000 ms, Requilibration=500 ms. • Flow rates: pump 1=1.5 mL/min, pump 2 1.25 mL/min pump 3=0.8 mL/min
Mass Spectrometer Settings: • LRRKtide Detection settings: Q1 mass 644.8 Da, Q3 mass 638.8, declustering potential 76 volts, collision energy 37 volts, CXP 34 volts. • Phospho-LRRKtide Detection settings: Q1 mass 671.4 Da, Q3 mass 638.8, Declustering potential 76 volts, Collision energy 37 volts, CXP 34 volts. • A C4 cartridge was used and running buffers were: A (aqueous) 0.1% formic acid in water B (organic) 0.1% formic acid, 80% acetonitrile, 20% water. • Collision gas: 12, Curtain gas: 25, Ion Source gas (1): 60, Ion Source gas (2): 60, Ion Spray Voltage: 5500, Temperature: 600, Interface Heater: ON. • Resolution Q1: low, Resolution Q3: low. • 5) Data were analysed using ActivityBase software (IDBS). A percent conversion from LRRKtide to Phospho-LRRKtide was calculated using the following formula:
% conversion=(Phospho-LRRKtide product peak area/(Phospho-LRRKtide product peak area+LRRKtide substrate peak area))*100 • A logistic 4 parameter curve fit was applied, using the following formula,
[formula] • Where x is the concentration of test sample, y is inhibition (%), a is the minimum, b is the Hill slope, c is the IC50 and d is the maximum. From this, the pIC50 was derived (−log IC50).

T1 sequence (Q5S007 with tags, fused parts or gaps R50H): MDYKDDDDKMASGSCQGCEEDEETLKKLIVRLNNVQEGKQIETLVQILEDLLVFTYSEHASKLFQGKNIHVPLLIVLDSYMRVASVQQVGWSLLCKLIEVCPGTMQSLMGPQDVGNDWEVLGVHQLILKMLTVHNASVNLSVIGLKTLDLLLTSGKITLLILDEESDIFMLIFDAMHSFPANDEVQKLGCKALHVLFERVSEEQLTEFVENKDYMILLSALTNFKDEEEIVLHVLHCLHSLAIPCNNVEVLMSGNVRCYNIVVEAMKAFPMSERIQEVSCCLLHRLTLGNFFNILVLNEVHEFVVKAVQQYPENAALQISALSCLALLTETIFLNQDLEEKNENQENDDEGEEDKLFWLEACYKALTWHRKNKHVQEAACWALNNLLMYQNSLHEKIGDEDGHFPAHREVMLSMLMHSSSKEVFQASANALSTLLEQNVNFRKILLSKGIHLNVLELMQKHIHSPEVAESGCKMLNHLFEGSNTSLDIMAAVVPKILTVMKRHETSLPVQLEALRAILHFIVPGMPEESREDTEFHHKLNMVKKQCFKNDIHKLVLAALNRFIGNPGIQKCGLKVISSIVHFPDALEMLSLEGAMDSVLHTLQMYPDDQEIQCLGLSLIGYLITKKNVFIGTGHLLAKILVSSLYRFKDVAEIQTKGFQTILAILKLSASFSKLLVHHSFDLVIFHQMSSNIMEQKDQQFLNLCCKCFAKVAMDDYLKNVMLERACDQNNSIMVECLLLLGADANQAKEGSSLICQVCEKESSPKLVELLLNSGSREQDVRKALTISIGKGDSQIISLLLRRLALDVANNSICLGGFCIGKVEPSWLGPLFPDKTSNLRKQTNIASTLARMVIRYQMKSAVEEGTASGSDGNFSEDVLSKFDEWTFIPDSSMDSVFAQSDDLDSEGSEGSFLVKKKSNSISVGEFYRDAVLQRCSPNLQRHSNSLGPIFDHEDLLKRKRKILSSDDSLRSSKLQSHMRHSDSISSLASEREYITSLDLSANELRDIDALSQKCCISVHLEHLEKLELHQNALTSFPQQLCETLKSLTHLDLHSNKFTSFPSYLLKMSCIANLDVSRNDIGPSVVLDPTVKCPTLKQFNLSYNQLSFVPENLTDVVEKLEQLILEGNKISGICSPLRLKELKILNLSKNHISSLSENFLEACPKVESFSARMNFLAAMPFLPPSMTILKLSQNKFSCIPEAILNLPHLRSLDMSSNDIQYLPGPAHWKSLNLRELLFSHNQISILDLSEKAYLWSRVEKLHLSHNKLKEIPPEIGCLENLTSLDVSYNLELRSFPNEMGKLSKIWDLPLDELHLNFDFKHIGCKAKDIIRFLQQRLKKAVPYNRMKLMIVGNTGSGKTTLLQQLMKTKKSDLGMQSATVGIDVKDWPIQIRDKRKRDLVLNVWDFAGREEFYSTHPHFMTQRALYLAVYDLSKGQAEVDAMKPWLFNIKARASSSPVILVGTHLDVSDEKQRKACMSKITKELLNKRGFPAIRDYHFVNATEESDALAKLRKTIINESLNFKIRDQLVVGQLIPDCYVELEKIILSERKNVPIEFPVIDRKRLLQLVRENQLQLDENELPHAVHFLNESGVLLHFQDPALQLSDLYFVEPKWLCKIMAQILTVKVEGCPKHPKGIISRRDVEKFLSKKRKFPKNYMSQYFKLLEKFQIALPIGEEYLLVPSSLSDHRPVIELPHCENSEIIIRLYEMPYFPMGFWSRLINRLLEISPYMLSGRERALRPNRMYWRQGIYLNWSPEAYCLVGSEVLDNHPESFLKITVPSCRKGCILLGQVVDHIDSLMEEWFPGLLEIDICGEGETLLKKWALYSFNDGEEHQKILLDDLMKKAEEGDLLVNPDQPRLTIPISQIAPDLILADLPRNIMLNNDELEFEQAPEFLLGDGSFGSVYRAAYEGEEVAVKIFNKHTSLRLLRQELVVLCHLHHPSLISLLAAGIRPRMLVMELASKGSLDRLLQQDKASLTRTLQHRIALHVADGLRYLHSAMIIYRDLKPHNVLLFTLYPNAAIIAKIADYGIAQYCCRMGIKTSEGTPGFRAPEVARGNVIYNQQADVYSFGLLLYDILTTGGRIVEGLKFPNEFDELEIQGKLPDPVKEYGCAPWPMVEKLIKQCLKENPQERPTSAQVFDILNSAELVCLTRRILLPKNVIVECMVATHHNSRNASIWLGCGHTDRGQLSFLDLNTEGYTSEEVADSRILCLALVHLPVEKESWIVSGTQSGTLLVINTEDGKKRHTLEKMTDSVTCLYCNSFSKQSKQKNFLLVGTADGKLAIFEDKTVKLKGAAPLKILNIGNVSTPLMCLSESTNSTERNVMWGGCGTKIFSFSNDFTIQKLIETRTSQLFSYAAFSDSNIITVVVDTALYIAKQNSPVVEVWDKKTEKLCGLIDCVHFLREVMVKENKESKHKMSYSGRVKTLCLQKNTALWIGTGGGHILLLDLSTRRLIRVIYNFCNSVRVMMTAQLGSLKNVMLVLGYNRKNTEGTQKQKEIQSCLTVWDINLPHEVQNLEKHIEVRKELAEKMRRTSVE

SMILES	IC50 [nM]
Cc1c2c(nn1C1CCOC1)OCCCNc1nc(ncc1Cl)N2 (single isomer, unassigned) [E124, 14-chloro-4-methyl-5-(oxolan-3-yl)-8-oxa-2,5,6,12,16,17-hexaazatricyclo[11.3.1.0^3,7]heptadeca-1(16),3,6,13(17), 14-pentaene]	≤ 100
Cc1c2c(nn1C1CCOC1)OCCCNc1nc(ncc1C(F)(F)F)N2 (single isomer, unassigned) [E128, 4-methyl-5-(oxolan-3-yl)-14-(trifluoromethyl)-8-oxa-2,5,6,12,16,17-hexaazatricyclo[11.3.1.0^3,7]heptadeca-1(16),3,6,13(17),14-pentaene]	≤ 100
Cc1c2c(nn1C1CCOCC1)OCC(C)CNc1nc(ncc1Cl)N2 (single isomer, unassigned) [E137, 14-chloro-4,10-dimethyl-5-(oxan-4-yl)-8-oxa-2,5,6,12,16,17-hexaazatricyclo[11.3.1.0^3,7]heptadeca-1(16),3,6,13(17),14-pentaene]	≤ 100
Cc1c2c(nn1C1CCOCC1C)OCCCNc1nc(ncc1Cl)N2 (single isomer, unassigned) [E140, 14-chloro-4-methyl-5-(3-methyloxan-4-yl)-8-oxa-2,5,6,12,16,17-hexaazatricyclo[11.3.1.0^3,7]heptadeca-1(16),3,6,13(17),14-pentaene]	≤ 100
Cc1c2c(nn1C1CCOCC1C)OCCCNc1nc(ncc1Cl)N2 (single isomer, unassigned) [E141, 14-chloro-4-methyl-5-(3-methyloxan-4-yl)-8-oxa-2,5,6,12,16,17-hexaazatricyclo[11.3.1.0^3,7]heptadeca-1(16),3,6,13(17),14-pentaene]	≤ 100
Clc1cnc2nc1NCCCOc1nn(C3CCOC3)c(Cl)c1N2 (single isomer, unassigned) [E146, 4,14-Dichloro-5-(oxolan-3-yl)-8-oxa-2,5,6,12, 16,17-hexaaza tricyclo[11.3.1.0^3,7]heptadeca-1(16),3,6,13(17), 14-pentaene]	≤ 100
Cc1c2c(nn1C1CCC(N3CCC(F)C3)CC1)OCCCNc1nc(ncc1Cl)N2 (single isomer, unassigned) [E154, 14-Chloro-5-[4-(3-fluoropyrrolidin-1-yl)cyclohexyl]-4-methyl-8-oxa-2,5,6,12,16,17-hexaazatricyclo[11.3.1. 0^3,7]heptadeca-1(16),3,6,13(17),14-pentaene]	≤ 100
Cc1c2c(nn1C1CCC(N3CCC(F)C3)CC1)OCCCNc1nc(ncc1Cl)N2 (single isomer, unassigned) [E155, 14-Chloro-5-[4-(3-fluoropyrrolidin-1-yl)cyclohexyl]-4-methyl-8-oxa-2,5,6,12,16,17-hexaazatricyclo[11.3.1. 0^3,7]heptadeca-1(16),3,6,13(17),14-pentaene]	≤ 100
COC1CCCC(n2nc3c(c2C)Nc2ncc(Cl)c(n2)NCCCO3)C1 (single isomer, unassigned) [E180, 14-Chloro-5-(3-methoxycyclohexyl)-4-methyl-8-oxa-2,5,6,12,16,17-hexaazatricyclo[11.3.1.0^3,7]heptadeca-1(16),3,6,13(17),14-pentaene]	≤ 100
COC1CCCC(n2nc3c(c2C)Nc2ncc(Cl)c(n2)NCCCO3)C1 (single isomer, unassigned) [E181, 14-Chloro-5-(3-methoxycyclohexyl)-4-methyl-8-oxa-2,5,6,12,16,17-hexaazatricyclo[11.3.1.0^3,7]heptadeca-1(16),3,6,13(17),14-pentaene]	100000
Cc1c2c(nn1C(C)C1CCOCC1)OCCC(C)Nc1nc(ncc1Cl)N2 (single isomer, unassigned) [E182, 14-Chloro-4,11-dimethyl-5-[1-(oxan-4-yl)ethyl]-8-oxa-2,5,6,12,16,17-hexaazatricyclo[11.3.1.0^3,7]heptadeca-1(16),3,6,13(17),14-pentaene]	≤ 10000
Cc1c2c(nn1C(C)C1CCOCC1)OCCC(C)Nc1nc(ncc1Cl)N2 (single isomer, unassigned) [E184, 14-Chloro-4,11-dimethyl-5-[1-(oxan-4-yl)ethyl]-8-oxa-2,5,6,12,16,17-hexaazatricyclo[11.3.1.0^3,7]heptadeca-1(16),3,6,13(17),14-pentaene]	≤ 100
Cc1c2c(nn1C(C)C1CCOCC1)OCCC(C)Nc1nc(ncc1Cl)N2 (single isomer, unassigned) [E185, 14-Chloro-4,11-dimethyl-5-[1-(oxan-4-yl)ethyl]-8-oxa-2,5,6,12,16,17-hexaazatricyclo[11.3.1.0^3,7]heptadeca-1(16),3,6,13(17),14-pentaene]	≤ 10000
Cc1c2c(nn1C(C)C1CCOCC1)OCCCNc1nc(ncc1Cl)N2 (single isomer, unassigned) [E187, 14-Chloro-4-methyl-5-[1-(oxan-4-yl)ethyl]-8-oxa-2,5,6,12,16,17-hexaazatricyclo[11.3.1.0^3,7]heptadeca-1(16), 3,6,13(17),14-pentaene]	≤ 100
Cc1c2c(nn1C1CCOCC1)OCCC(C(F)(F)F)Nc1nc(ncc1Cl)N2 (single isomer, unassigned) [E193, 14-Chloro-4-methyl-5-(oxan-4-yl)-11-(trifluoromethyl)-8-oxa-2,5,6,12,16,17-hexaazatricyclo[11.3.1.0^3,7] heptadeca-1(16),3,6,13(17),14-pentaene]	≤ 10000
Cc1c2c(nn1C1CC(C)OC(C)C1)OCCC(C)Nc1nc(ncc1Cl)N2 (single isomer, unassigned) [E195, 14-Chloro-5-(2,6-dimethyloxan-4-yl)-4,11-dimethyl-8-oxa-2,5,6,12,16,17-hexaazatricyclo[11.3.1.0^3,7] heptadeca-1(16),3,6,13(17),14-pentaene]	≤ 100
Cc1c2c(nn1C1CC(C)OC(C)C1)OCCC(C)Nc1nc(ncc1Cl)N2 (single isomer, unassigned) [E197, 14-Chloro-5-(2,6-dimethyloxan-4-yl)-4,11-dimethyl-8-oxa-2,5,6,12,16,17-hexaazatricyclo[11.3.1.0^3,7] heptadeca-1(16),3,6,13(17),14-pentaene]	≤ 10000
COC1CNc2nc(ncc2Cl)Nc2c(nn(C3CC(C)OC(C)C3)c2C)OC1 (single isomer, unassigned) [E199, 14-Chloro-5-(2,6-dimethyloxan-4-yl)-10-methoxy-4-methyl-8-oxa-2,5,6,12,16,17-hexaazatricyclo[11.3.1.0^3,7] heptadeca-1(16),3,6,13(17),14-pentaene]	≤ 10000
Cc1c2c(nn1C1CC(C)OC(C)C1)OCCCNc1nc(ncc1Cl)N2 (single isomer, unassigned) [E201, 14-Chloro-5-(2,6-dimethyloxan-4-yl)-4-methyl-8-oxa-2,5,6,12,16,17-hexaazatricyclo[11.3.1.0^3,7]heptadeca-1(16),3,6,13(17),14-pentaene]	≤ 100
Cc1c2c(nn1C1CCOC(C)C1)OCCCNc1nc(ncc1Cl)N2 (single isomer, unassigned) [E203, 14-Chloro-4-methyl-5-(2-methyloxan-4-yl)-8-oxa-2,5,6,12,16,17-hexaazatricyclo[11.3.1.0^3,7]heptadeca-1(16),3,6,13(17),14-pentaene]	≤ 100
Cc1c2c(nn1CCN1C[C@H]3C[C@@H]1CO3)OCCC(C)Nc1nc(ncc1Cl)N2 (single isomer, unassigned) [E209]	≤ 10000
Cc1c2c(nn1CCN1C[C@H]3C[C@@H]1CO3)OCCC(C)Nc1nc(ncc1Cl)N2 (single isomer, unassigned) [E210]	≤ 100
Cc1c2c(nn1CCN1C[C@H]3C[C@@H]1CO3)OCCC(C)Nc1nc(ncc1Cl)N2 (single isomer, unassigned) [E211]	≤ 10000
